As a reminder, the IC50 is the point on the concentration scale where inhibition reaches its midpoint.

Values after ≈ are worked out from the molar mass of the structure shown.

In series [1] the test system is PC3 prostate cancer. Briefly: Cell growth inhibition (Table 22), PC3. It counts as cell-based. To be noted: Homo sapiens, PC-3; read-out: IC50 (drug dose which inhibits cell growth by 50%) PC3. Here is the method: (§1) The isolated compounds were tested against a number of human and non-human cancer cell lines. The human tumor cell lines were: MCF-7, MDA-MB-231 and T47D, breast cancer; DU145 and PC3, prostate cancer; CI80-13S, ovarian cancer; MM96L, D04, SkMel5, MM418c5 melanoma; HT29, colon cancer; K562 and HL60, leukemia. Mouse cell lines were the B16 mouse melanoma and LK2 UV-induced squamous cell carcinoma (SCC). Neonatal foreskin fibroblasts (NFF) were used as normal control cells. Cells were cultured at 37° C. in 5% carbon dioxide/air, in RPMI 1640 medium containing 10% fetal calf serum.

Series [2] deals with Bacillus subtilis. The experiment in a line: ProTOX (Bs) antibacterial bioassay. Format: cell-based. As to conditions: for Bs LD99: weight of chemical in last well with activity, real value may be lower. The source says: ProTOX, (alternatively referred to herein as Bs) is an antibacterial bioassay, broadly applicable to most aerobic and anaerobic bacteria. The bioassay features a solid phase agar base into which the test compound has been incorporated together with a chromogen. As the bacteria multiply in the well, the chromogen is metabolised from blue in a two-step process to a colourless compound. Compounds with potent bactericidal activity inhibit bacterial metabolism of the chromogen while bacteriostatic compounds induce limited metabolism as indicated by an intermediate pink colour. ProTOX is broadly applicable to a range of gram-positive and gram-negative bacteria under aerobic and microaerophilic conditions. ProTOX assays were carried out using Bacillus subtilis. Briefly, in ProTOX, the bacteria (24 hour broth) were applied to the surface of an agar matrix containing the test sample and allowed to grow for 48 h. The assay was monitored at 24 and 48 hours and the active wells noted. Known antibiotics yield consistent colour transitions which are concentration and time dependent. These patterns provided an important guide to the early recognition of interesting characteristics.

Series [3] has as its system control LCL (lymphoblastoid cells). The experiment in a line: Direct toxicity on control LCL. As to conditions: same drug concentrations as MLR (1 μg/mL). It counts as cell-based, human. Here is the method: (§2) Gamma-irradiated lymphoblastoid cells (LCL, Esptein-Barr virus-transformed B-cells; 17,000) were added to human peripheral blood lymphocytes (PBMC; 50,000 per microtitre well), then the drug, incubated at 37 C as above and labeled with [3H]-thymidine on Day 4. Cells were lysed and washed onto glass fibre mats for scintillation counting. The same drug concentrations were tested for direct toxicity by assay on control LCL (10,000 cells/well).

Series [4] relates to B16 melanoma. The experiment in a line: Inhibition of B16 melanoma growth in C57BL/6 mice. It counts as in vivo. Here is the method: After a preliminary experiment to determine the MTD in mice, C57BL/6 mice were implanted with B16 melanoma cells (0.5 million cells per site, 2 sites per mouse sc, 3 mice/group) and treatment commenced 24 hours later. For this initial study, EBI-23 was prepared by diluting an ethanol solution into saline, such that the final ethanol level was 2%. The cloudy solution thus obtained was injected intraperitoneally into mice every day for 7 days. Tumor size and body weight were measured over time.

The test system of series [5] is B16 mouse melanoma. The experiment in a line: Cell growth inhibition (Table 22), B16. It counts as cell-based. To be noted: read-out: IC50 (drug dose which inhibits cell growth by 50%) B16. As to the method:
as §1

Series [6] has as its system Trichophyton rubrum. Briefly: MycoTOX (Tr) antifungal bioassay. It counts as cell-based. Here is the method: MycoTOX (alternatively referred to herein as Tr) is a non-chromogenic bioassay used to detect activity against filamentous fungal pathogens of plants and animals. The bioassay features a solid phase agar base into which the test compound has been incorporated. As the growth patterns of filamentous fungi are readily apparent on the agar surface the extent of mycelial growth, sporulation (if relevant to the species under investigation) and colour changes with maturation are measured.
MycoTOX, involves a fungus (spore suspension or mycelial fragments) applied to the surface of an agar matrix containing the test chemical and allowed to grow for a period of up to a week (depending on species). The assay was monitored at two discrete times to identify key development phases in the life cycle (for example mycelial growth and extent of sporulation) and the active wells noted. The monitoring times were dependent on the fungal species under investigation.
The MycoTOX assays were carried out using Trichophyton rubrum.

Series [7] deals with Neonatal foreskin fibroblasts (NFF). Briefly: Cell growth inhibition (Table 22), NFF. Format: cell-based. As to conditions: Homo sapiens, read-out: IC50 (drug dose which inhibits cell growth by 50%) NFF. Here is the method:
as §1

The subject of series [8] is human peripheral blood lymphocytes (PBMC) with gamma-irradiated LCL. The experiment in a line: Inhibition of the mixed lymphocyte reaction (MLR). Format: cell-based. As to conditions: [3H]-thymidine on Day 4. As to the method:
as §2
The MLR measures the ability of normal human T-cells to undergo a proliferative response to allo antigens expressed by a non-proliferating B-cell line. […] This was not due to general toxicity because the growth of control LCLs was unaffected.

Series [9] concerns Giardia spp. The experiment in a line: TriTOX (Gi) anti-protozoan bioassay. It counts as cell-based. To be noted: for Gi LD99: weight of chemical in last well with activity, real value may be lower. The source says:
TriTOX (alternatively referred to herein as Gi) is a microtitre plate based chromogenic bioassay for the screening of anti-protozoan activity of pathogenic, anaerobic/microaerophilic protozoans for example Giardia spp. and Trichomonas spp. The bioassays are run under anaerobic conditions and features species specific chromogens. […] Aliquots of each concentration(s) are applied to the wells of 96-well microtitre plates and diluted with media. […] The lowest concentration at which the compound is active is noted as the minimum inhibitory concentration (MIC). Additionally, microscopic inspection is carried out to identify any patterns of morphological change that may be consistent with a type of toxicity and therefore mode of action. Giardia spp. was utilized for this assay.

Series [10] deals with MCF-7 breast cancer. The experiment in a line: Cell growth inhibition (Table 22), MCF7. As to conditions: Homo sapiens, read-out: IC50 (drug dose which inhibits cell growth by 50%) MCF7. Format: cell-based. As to the method: as §1
Series [11] relates to several cell lines. The experiment in a line: Morphological and cell cycle effects (flow cytometry). As to conditions: 24 hour treatment, 1 μg/mL. It counts as cell-based. The source says:
This tends to rule out targets such as PKC (prototype compound PMA), DNA damage (prototype cisplatin), kinases (prototype staurosporine), mitochondria or the plasma membrane (cell lysis).
This was not accompanied, however, by the typical rounded morphology of cells treated with tubulin ligands.

Series [12] concerns a human tumor cell line. The experiment in a line: Preliminary screen of growth-inhibiting activity of derivatised EBI-23, EBI-24, EBI-25. It counts as cell-based. As to conditions: growth inhibition. As to the method: A series of derivatisation reactions were conducted on 1 mg amounts of EBI-23, EBI-24, and EBI-25. Mass spectra were run to confirm the nature of the derivatives but the product(s) weren't purified for this preliminary screen of growth-inhibiting activity in a human tumor cell line. The results were compared on the assumption that no losses occurred during derivatisation.

`CCCCCCCCCCCCCC(O)CC1CC(O)CC2(CC3OC(=O)C=CC3O2)O1` (stereo not drawn) [EBI-23]: the IC50 in [1] is 1 µg/mL (≈ 2.21 µM); in series [5], 0.5 µg/mL (≈ 1.1 µM); in series [7], 2 µg/mL (≈ 4.42 µM); in series [10], 0.5 µg/mL (≈ 1.1 µM). In series [2], the “Bs Titre” value came out at 16. Moreover, the “Bs LD99” value in series [2] (listed as EB77.LA4.92-100) is 3.9 µg/mL; in series [2] (listed as EB116.LA3.31-27/32), 3.1 µg/mL; in [2] (listed as EB116.LA3.60-40/42), 6.3 µg/mL. The “growth of control LCLs” value in [3] was “unaffected”. Also, the B16 growth entry in series [4] (80 μg (per mouse per day) intraperitoneally) is reported as “measurable response”; in [4] (250 μg/mouse/day intraperitoneally), “significant reduction”. For the same compound, in series [4] (higher dose (250 μg/mouse/day)), the body weight entry is “some weight loss”. The tolerability of regime entry in series [4] (intraperitoneal daily dosing, C57BL/6 mice) is “tolerated this regime well”. Further, the “Tr Titre” value in [6] is listed as 0. For the same compound, the “concentration found to inhibit the MLR” value in series [8] was 1 µg/mL. Moreover, in series [9], the “Gi Titre” value amounted to 4. For the same compound, the figures for the “Gi LD99” value in series [9] (listed as EB77.LA4.92-100), in series [9] (listed as EB116.LA3.31-27/32) and in [9] (listed as EB116.LA3.60-40/42) were 16 µg/mL, 50 µg/mL and 50 µg/mL, respectively. Besides, the “DNA fragments (apoptosis)” value in [11] was “No DNA fragments were detected”. Further, the “cell cycle effect by flow cytometry” value in series [11] is on record as “variable degree of G2/M arrest”.
Take `CC/C=C/CCCCCCCCCCCC(O)CC1CC(O)CC2(CC3OC(=O)C=CC3O2)O1` (stereo not drawn) [EBI-24]: the “Bs LD99” value in series [2] is 13 µg/mL. In addition, the IC50 in series [7] was found to be 0.8 µg/mL (≈ 1.67 µM); in series [10], 0.2 µg/mL (≈ 0.418 µM). Also, the “fold less potent than EBI-23” value in series [12] is on record as 10 fold. The “Gi LD99” value in series [9] (listed as EB116.LA3.31-36/40) worked out at 100 µg/mL; in series [9] (listed as EB116.LA3.60-47/49), 50 µg/mL.

(Values after patent US8921414B2, “Spiroketals” (EcoBiotics Ltd, priority 2005, dated 2014).)
